Source: ChEMBL document CHEMBL1268989, “Design, syntheses, and SAR of 2,8-diazaspiro[4.5]decanones as T-type calcium channel antagonists” (Bioorg Med Chem Lett, 2010)
Activity calls are given as the source filed them. No cut-off for these calls is given here.

Experiments:
[1] = molecular target: Voltage-dependent T-type calcium channel subunit alpha-1H (Homo sapiens) (UniProt O95180); experiment: Antagonist activity against T-type calcium channel subunit alpha-1H assessed as inactivation of channel current at 0.3 uM by cell based patch clamp assay; assay type: functional
Sequence of Voltage-dependent T-type calcium channel subunit alpha-1H (Homo sapiens) (O95180 whole entry): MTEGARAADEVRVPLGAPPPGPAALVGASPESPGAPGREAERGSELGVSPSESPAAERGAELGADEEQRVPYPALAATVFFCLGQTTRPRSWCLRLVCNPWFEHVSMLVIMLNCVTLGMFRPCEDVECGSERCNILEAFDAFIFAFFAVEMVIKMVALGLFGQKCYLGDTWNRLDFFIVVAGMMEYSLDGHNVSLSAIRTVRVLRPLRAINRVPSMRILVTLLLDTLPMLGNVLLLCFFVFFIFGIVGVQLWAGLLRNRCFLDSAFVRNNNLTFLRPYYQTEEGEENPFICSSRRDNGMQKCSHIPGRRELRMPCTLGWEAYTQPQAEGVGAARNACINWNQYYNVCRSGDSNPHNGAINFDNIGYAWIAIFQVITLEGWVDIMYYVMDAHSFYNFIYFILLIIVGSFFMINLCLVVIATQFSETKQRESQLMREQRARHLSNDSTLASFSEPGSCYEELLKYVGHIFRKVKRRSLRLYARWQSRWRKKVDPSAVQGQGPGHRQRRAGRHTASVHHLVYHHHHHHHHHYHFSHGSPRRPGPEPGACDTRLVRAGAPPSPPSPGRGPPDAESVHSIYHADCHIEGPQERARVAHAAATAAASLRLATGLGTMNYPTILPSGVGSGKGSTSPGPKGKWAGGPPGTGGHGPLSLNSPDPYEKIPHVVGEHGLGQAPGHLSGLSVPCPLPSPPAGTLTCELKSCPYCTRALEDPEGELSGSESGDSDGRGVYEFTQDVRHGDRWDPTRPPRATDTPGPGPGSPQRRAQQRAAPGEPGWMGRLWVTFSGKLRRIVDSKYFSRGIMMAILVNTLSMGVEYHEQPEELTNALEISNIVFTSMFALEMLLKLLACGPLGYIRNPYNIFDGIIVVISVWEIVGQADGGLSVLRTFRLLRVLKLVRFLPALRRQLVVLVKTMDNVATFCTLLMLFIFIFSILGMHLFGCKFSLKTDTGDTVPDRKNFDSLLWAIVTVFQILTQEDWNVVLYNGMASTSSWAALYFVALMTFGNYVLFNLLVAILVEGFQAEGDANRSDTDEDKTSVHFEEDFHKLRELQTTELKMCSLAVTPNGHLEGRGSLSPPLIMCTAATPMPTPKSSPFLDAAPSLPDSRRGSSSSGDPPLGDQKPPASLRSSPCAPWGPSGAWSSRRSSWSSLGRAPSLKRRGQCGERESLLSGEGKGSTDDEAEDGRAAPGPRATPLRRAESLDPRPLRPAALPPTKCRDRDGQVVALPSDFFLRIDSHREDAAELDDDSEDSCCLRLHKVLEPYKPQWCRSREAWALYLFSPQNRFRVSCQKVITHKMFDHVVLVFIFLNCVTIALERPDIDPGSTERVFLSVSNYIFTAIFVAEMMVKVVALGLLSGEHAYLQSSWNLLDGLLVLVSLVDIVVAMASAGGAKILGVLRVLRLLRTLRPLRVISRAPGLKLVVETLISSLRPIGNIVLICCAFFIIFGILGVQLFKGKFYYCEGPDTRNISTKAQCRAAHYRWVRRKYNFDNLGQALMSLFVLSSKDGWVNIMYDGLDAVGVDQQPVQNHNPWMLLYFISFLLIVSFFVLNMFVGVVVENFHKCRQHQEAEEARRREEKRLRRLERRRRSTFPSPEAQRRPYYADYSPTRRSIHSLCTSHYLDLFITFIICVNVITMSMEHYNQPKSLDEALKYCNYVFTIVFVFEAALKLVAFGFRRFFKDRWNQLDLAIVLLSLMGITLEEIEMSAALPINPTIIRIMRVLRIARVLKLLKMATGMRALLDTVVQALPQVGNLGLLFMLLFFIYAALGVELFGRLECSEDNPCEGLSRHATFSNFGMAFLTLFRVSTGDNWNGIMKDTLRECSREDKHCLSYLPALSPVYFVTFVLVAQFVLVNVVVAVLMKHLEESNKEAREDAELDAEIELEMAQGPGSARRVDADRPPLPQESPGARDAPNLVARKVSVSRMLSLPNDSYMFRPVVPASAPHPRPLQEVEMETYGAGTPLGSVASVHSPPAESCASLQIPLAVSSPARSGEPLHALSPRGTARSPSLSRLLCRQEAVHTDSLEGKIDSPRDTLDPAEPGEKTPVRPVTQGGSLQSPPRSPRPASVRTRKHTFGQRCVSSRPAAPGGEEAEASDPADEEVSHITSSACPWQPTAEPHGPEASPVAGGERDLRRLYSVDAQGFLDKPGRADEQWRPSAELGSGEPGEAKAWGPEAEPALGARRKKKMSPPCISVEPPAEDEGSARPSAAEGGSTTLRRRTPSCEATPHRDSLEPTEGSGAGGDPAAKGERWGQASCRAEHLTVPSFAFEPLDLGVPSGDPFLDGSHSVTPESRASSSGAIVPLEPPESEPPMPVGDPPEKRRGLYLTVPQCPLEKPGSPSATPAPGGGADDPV

[2] = molecular target: Voltage-dependent L-type calcium channel subunit alpha-1C (Homo sapiens) (UniProt Q13936); experiment: Antagonist activity against L-type calcium channel subunit alpha-1C assessed as inactivation of channel current at 0.1 uM by cell based patch clamp assay
Sequence of Voltage-dependent L-type calcium channel subunit alpha-1C (Homo sapiens) (Q13936 whole entry, looked up): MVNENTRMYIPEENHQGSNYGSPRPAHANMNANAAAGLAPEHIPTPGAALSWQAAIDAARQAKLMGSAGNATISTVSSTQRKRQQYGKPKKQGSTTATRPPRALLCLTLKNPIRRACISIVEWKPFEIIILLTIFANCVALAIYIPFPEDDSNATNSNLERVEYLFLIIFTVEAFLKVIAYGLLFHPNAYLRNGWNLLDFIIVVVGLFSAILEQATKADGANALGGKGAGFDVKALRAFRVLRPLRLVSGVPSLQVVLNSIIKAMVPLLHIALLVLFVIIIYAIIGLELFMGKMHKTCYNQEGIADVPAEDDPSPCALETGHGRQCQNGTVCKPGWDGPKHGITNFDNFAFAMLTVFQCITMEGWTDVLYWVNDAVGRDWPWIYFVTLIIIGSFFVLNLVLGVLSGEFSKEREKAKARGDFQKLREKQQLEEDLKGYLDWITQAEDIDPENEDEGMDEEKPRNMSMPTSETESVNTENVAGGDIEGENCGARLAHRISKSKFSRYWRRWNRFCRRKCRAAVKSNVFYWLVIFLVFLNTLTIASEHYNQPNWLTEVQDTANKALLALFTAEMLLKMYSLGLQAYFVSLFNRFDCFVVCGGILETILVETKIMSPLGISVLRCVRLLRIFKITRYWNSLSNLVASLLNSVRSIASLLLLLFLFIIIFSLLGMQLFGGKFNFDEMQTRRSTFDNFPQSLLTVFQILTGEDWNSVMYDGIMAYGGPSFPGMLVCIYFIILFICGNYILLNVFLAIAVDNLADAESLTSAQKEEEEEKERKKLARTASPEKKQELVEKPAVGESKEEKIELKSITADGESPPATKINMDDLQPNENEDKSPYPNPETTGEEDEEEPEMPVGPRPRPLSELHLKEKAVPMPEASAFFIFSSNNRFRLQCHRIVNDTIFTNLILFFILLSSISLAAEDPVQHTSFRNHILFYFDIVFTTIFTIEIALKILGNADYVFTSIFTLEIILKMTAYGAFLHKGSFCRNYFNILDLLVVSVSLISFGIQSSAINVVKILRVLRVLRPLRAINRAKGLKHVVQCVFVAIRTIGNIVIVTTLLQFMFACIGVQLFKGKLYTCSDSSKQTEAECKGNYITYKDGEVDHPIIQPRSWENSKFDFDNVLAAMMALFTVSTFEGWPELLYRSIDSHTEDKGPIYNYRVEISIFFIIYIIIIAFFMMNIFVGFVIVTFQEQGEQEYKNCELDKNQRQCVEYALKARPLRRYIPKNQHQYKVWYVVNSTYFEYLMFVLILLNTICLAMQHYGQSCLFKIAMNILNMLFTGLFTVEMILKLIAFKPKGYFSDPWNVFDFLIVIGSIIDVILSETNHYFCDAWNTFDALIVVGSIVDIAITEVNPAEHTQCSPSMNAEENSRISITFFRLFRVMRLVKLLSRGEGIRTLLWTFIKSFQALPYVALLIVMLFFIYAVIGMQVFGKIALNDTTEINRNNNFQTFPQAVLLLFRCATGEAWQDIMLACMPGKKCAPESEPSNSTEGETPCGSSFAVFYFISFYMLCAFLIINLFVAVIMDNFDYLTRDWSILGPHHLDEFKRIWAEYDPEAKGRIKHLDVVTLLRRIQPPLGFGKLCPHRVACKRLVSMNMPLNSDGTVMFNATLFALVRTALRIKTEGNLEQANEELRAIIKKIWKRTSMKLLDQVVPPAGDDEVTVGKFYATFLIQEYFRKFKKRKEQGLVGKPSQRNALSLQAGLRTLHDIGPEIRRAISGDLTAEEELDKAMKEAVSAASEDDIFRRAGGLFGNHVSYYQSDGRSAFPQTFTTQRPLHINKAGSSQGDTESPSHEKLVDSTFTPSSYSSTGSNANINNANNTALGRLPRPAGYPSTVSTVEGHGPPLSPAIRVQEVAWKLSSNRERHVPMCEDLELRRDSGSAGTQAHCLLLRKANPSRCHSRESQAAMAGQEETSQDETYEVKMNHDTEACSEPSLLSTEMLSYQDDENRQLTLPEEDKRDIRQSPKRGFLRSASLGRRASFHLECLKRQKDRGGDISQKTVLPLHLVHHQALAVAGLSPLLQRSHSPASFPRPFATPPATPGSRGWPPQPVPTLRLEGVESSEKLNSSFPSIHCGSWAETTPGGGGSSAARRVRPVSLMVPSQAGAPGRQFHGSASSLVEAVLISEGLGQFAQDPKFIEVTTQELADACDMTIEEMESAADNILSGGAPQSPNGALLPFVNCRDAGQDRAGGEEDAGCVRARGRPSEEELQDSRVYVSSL

[3] = molecular target: Voltage-dependent T-type calcium channel subunit alpha-1H (Homo sapiens) (UniProt O95180); experiment: Antagonist activity against T-type calcium channel subunit alpha-1H assessed as inactivation of channel current at 3 uM by cell based patch clamp assay; assay type: functional
[4] = molecular target: Voltage-dependent L-type calcium channel subunit alpha-1C (Homo sapiens) (UniProt Q13936); experiment: Antagonist activity against L-type calcium channel subunit alpha-1C assessed as inactivation of channel current at 3 uM by cell based patch clamp assay
[5] = molecular target: Voltage-dependent T-type calcium channel subunit alpha-1H (Homo sapiens) (UniProt O95180); experiment: Antagonist activity against T-type calcium channel subunit alpha-1H assessed as inactivation of channel current at 1 uM by cell based patch clamp assay; assay type: functional
[6] = molecular target: Voltage-dependent T-type calcium channel subunit alpha-1H (Homo sapiens) (UniProt O95180); experiment: Antagonist activity against T-type calcium channel subunit alpha-1H assessed as inactivation of channel current at 0.03 uM by cell based patch clamp assay; assay type: functional
[7] = molecular target: Voltage-dependent L-type calcium channel subunit alpha-1C (Homo sapiens) (UniProt Q13936); experiment: Antagonist activity against L-type calcium channel subunit alpha-1C assessed as inactivation of channel current at 10 uM by cell based patch clamp assay
[8] = Selectivity for T-type calcium channel subunit alpha-1H over L-type calcium channel subunit alpha-1C
[9] = molecular target: Voltage-dependent L-type calcium channel subunit alpha-1C (Homo sapiens) (UniProt Q13936); experiment: Antagonist activity against L-type calcium channel subunit alpha-1C assessed as inactivation of channel current at 0.3 uM by cell based patch clamp assay
[10] = molecular target: Voltage-dependent T-type calcium channel subunit alpha-1H (Homo sapiens) (UniProt O95180); experiment: Antagonist activity against T-type calcium channel subunit alpha-1H assessed as inactivation of channel current at 0.1 uM by cell based patch clamp assay; assay type: functional

O=C(c1ccc(Cl)cc1)N1CCC2(CCN(C(c3ccc(F)cc3)c3ccc(F)cc3)CC2)C1
inhibition [1]: 59%
inhibition [2]: 44%

CC(C)N1CCC2(CCN(C(c3ccc(F)cc3)c3ccc(F)cc3)CC2)C1=O
inhibition [3]: 57%
inhibition [4]: 52%

CC(C)OCCCN1CCC2(CCN(C(c3ccc(F)cc3)c3ccc(F)cc3)CC2)C1=O
inhibition [5]: 76%
inhibition [4]: 56%

O=C1CC2(CCN(C(c3ccc(F)cc3)c3ccc(F)cc3)CC2)CN1Cc1ccc(Cl)cc1
inhibition [5]: 68%
inhibition [2]: 42%

O=C1N(CCc2ccc(Cl)cc2)CCC12CCN(C(c1ccc(F)cc1)c1ccc(F)cc1)CC2
inhibition [6]: 30%

O=C1N(CCCN2CCOCC2)CCC12CCN(C(c1ccc(F)cc1)c1ccc(F)cc1)CC2
inhibition [5]: 35%

O=C1NCCC12CCN(C(c1ccc(F)cc1)c1ccc(F)cc1)CC2
inhibition [3]: < 20%
inhibition [5]: inactive

O=C(c1ccc(F)cc1)N1CCC2(CC1)CCN(Cc1ccc(Cl)cc1)C2=O
inhibition [5]: < 20%

O=C1N(Cc2ccc(Cl)cc2)CCC12CCNCC2
inhibition [3]: < 20%

COCCCN1CCC2(CCN(C(c3ccc(F)cc3)c3ccc(F)cc3)CC2)C1=O
inhibition [5]: 44%
inhibition [7]: 58%

CCOc1ccccc1CN1CCC2(CC1)CCN(Cc1ccc(Cl)cc1)C2=O
inhibition [3]: 67%

O=C1N(Cc2ccc(Cl)cc2)CCC12CCN(C(c1ccc(F)cc1)c1ccc(F)cc1)CC2
Ratio IC50 [8]: 10
inhibition [6]: 58%
inhibition [2]: 31%

O=C1N(Cc2cccc(Cl)c2)CCC12CCN(C(c1ccc(F)cc1)c1ccc(F)cc1)CC2
inhibition [6]: < 20%
inhibition [1]: 91%

COCCN1CCC2(CCN(C(c3ccc(F)cc3)c3ccc(F)cc3)CC2)C1=O
inhibition [5]: 28%

CC(C)C(C(C)C)N1CCC2(CCN(Cc3ccc(Cl)cc3)C2=O)CC1
inhibition [1]: 40%

O=C1N(Cc2ccc(Cl)cc2)CCC12CCN(S(=O)(=O)c1ccc(F)cc1)CC2
inhibition [3]: 45%
inhibition [4]: 54%

Fc1ccc(C(c2ccc(F)cc2)N2CCC3(CCN(Cc4ccc(Cl)cc4)C3)CC2)cc1
inhibition [5]: 66%

COc1cccc(CN2CCC3(CCN(C(c4ccc(F)cc4)c4ccc(F)cc4)CC3)C2=O)c1
Ratio IC50 [8]: 8
inhibition [6]: 52%
inhibition [9]: 67%

CC(C)(C)CCN1CCC2(CCN(C(c3ccc(F)cc3)c3ccc(F)cc3)CC2)C1=O
inhibition [1]: 44%
inhibition [9]: 60%

O=C1N(Cc2ccc(Cl)cc2)CCC12CCN(Cc1cccc(Oc3ccccc3)c1)CC2
inhibition [1]: 56%

O=C1N(Cc2ccc(Cl)cc2)CCC12CCN(Cc1ccc(F)cc1)CC2
inhibition [3]: 65%
inhibition [4]: 59%

O=C1N(Cc2ccc(Cl)cc2)CCC12CCN(CC(c1ccc(F)cc1)c1ccc(F)cc1)CC2
inhibition [10]: 59%
